In PubChem BioAssay AID1963849 (Molecular Pharmacology Branch, DTP, NCI, 2024):

Test system: 299254-011-R-J1-PDC complex spheroid viability
Test: Anticancer human tumor 299254-011-R-J1-PDC patient-derived melanoma cell line growth inhibition [POLQ]
Settings: for IC50: curve of first compound; for viability, T/C: stronger effect = lower value
How it was run: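 Three-cell-type spheroids modelling solid tumor plus stroma served as the readout system; POL inhibitors were tested individually and in combination, concentration ranges set by clinical Cmax where known.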

[1] = second compound 0.0316 µM, first compound 0.0316 µM
[2] = second compound 0.0316 µM, first compound 0.1 µM
[3] = second compound 0.0316 µM, first compound 0.316 µM
[4] = second compound 0.0316 µM, first compound 1 µM
[5] = second compound 0.1 µM, first compound 0.0316 µM
[6] = second compound 0.1 µM, first compound 0.1 µM
[7] = second compound 0.1 µM, first compound 0.316 µM
[8] = second compound 0.1 µM, first compound 1 µM
[9] = second compound 0.316 µM, first compound 0.0316 µM
[10] = second compound 0.316 µM, first compound 0.1 µM
[11] = second compound 0.316 µM, first compound 0.316 µM
[12] = second compound 0.316 µM, first compound 1 µM
[13] = second compound 1 µM, first compound 0.0316 µM
[14] = second compound 1 µM, first compound 0.1 µM
[15] = second compound 1 µM, first compound 0.316 µM
[16] = second compound 1 µM, first compound 1 µM
[17] = second compound 3.16 µM, first compound 0.0316 µM
[18] = second compound 3.16 µM, first compound 0.1 µM
[19] = second compound 3.16 µM, first compound 0.316 µM
[20] = second compound 3.16 µM, first compound 1 µM
[21] = second compound 10 µM, first compound 0.0316 µM
[22] = second compound 10 µM, first compound 0.1 µM
[23] = second compound 10 µM, first compound 0.316 µM
[24] = second compound 10 µM, first compound 1 µM
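Further: spheroids exposed to drugs for one week before measurement.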
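Wherever viability, T/C is given: percent viability relative to DMSO vehicle control taken as 100%.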

Question: With COc1cccc(OCCCN)c1-c1cc(Nc2cnc(C#N)cn2)n[nH]1 + COC1C(OC(N)=O)C(O)C(Oc2ccc3c(O)c(NC(=O)c4ccc(O)c(CC=C(C)C)c4)c(=O)oc3c2C)OC1(C)C as the compound, how does the IC50 (second compound 0.0316 µM) read?
Answer: 65.1 nM

Question: What about the IC50 (second compound 0.1 µM) of the same compound?
Answer: 119 nM

Question: What about the IC50 (second compound 0.316 µM) of the same compound?
Answer: 111 nM

Question: And the IC50 (second compound 1 µM)?
Answer: 206 nM

Question: What about the IC50 (second compound 3.16 µM) of the same compound?
Answer: 84.5 nM

Question: What about the IC50 (second compound 10 µM) of the same compound?
Answer: 126 nM

Question: What about the viability, T/C (second compound 0.0316 µM, first compound 0.00316 µM) of the same compound?
Answer: 99.5%

Question: What about the viability, T/C (second compound 0.0316 µM, first compound 0.01 µM) of the same compound?
Answer: 94.9%

Question: And the viability, T/C [1]?
Answer: 58.7%

Question: And the viability, T/C [2]?
Answer: 49.6%

Question: And the viability, T/C [3]?
Answer: 41.6%

Question: What about the viability, T/C [4] of the same compound?
Answer: 38.1%

Question: And the viability, T/C (second compound 0.1 µM, first compound 0.00316 µM)?
Answer: 94.2%

Question: And the viability, T/C (second compound 0.1 µM, first compound 0.01 µM)?
Answer: 98.6%

Question: And the viability, T/C [5]?
Answer: 72%

Question: And the viability, T/C [6]?
Answer: 53.9%

Question: What about the viability, T/C [7] of the same compound?
Answer: 41.1%

Question: And the viability, T/C [8]?
Answer: 38%

Question: And the viability, T/C (second compound 0.316 µM, first compound 0.00316 µM)?
Answer: 105%

Question: And the viability, T/C (second compound 0.316 µM, first compound 0.01 µM)?
Answer: 102%

Question: And the viability, T/C [9]?
Answer: 74.5%

Question: What about the viability, T/C [10] of the same compound?
Answer: 52.4%

Question: And the viability, T/C [11]?
Answer: 42.1%

Question: What about the viability, T/C [12] of the same compound?
Answer: 39.6%

Question: And the viability, T/C (second compound 1 µM, first compound 0.00316 µM)?
Answer: 114%

Question: And the viability, T/C (second compound 1 µM, first compound 0.01 µM)?
Answer: 89.2%

Question: What about the viability, T/C [13] of the same compound?
Answer: 74.2%

Question: And the viability, T/C [14]?
Answer: 56.8%

Question: What about the viability, T/C [15] of the same compound?
Answer: 43.8%

Question: What about the viability, T/C [16] of the same compound?
Answer: 39.9%

Question: What about the viability, T/C (second compound 3.16 µM, first compound 0.00316 µM) of the same compound?
Answer: 99.5%

Question: And the viability, T/C (second compound 3.16 µM, first compound 0.01 µM)?
Answer: 105%

Question: What about the viability, T/C [17] of the same compound?
Answer: 65.7%

Question: What about the viability, T/C [18] of the same compound?
Answer: 55.1%

Question: And the viability, T/C [19]?
Answer: 38.3%

Question: What about the viability, T/C [20] of the same compound?
Answer: 48.6%

Question: What about the viability, T/C (second compound 10 µM, first compound 0.00316 µM) of the same compound?
Answer: 105%

Question: And the viability, T/C (second compound 10 µM, first compound 0.01 µM)?
Answer: 104%

Question: What about the viability, T/C [21] of the same compound?
Answer: 67.7%

Question: And the viability, T/C [22]?
Answer: 56.9%

Question: What about the viability, T/C [23] of the same compound?
Answer: 49%

Question: What about the viability, T/C [24] of the same compound?
Answer: 40%

Question: Which results are given for CC1COCCN1c1cc(C2(O)CC3CCC(C2)O3)c2cnn(-c3ccn[nH]3)c2n1 (centres undefined) + Nc1ccc(C#CCN(C(=O)Cc2ncc(C(F)(F)F)cc2C(F)(F)F)c2ccc(F)cc2)nn1?
Answer: IC50 (second compound 0.0316 µM): 168 nM; IC50 (second compound 0.1 µM): 173 nM; IC50 (second compound 0.316 µM): 130 nM; IC50 (second compound 1 µM): 138 nM; IC50 (second compound 3.16 µM): 98.2 nM; IC50 (second compound 10 µM): 97.1 nM; viability, T/C [1]: 90.4%; viability, T/C [2]: 61.6%; viability, T/C [3]: 34.3%; viability, T/C [4]: 27.1%; viability, T/C (second compound 0.0316 µM, first compound 3.16 µM): 15.7%; viability, T/C (second compound 0.0316 µM, first compound 10 µM): 11.1%; viability, T/C [5]: 87.4%; viability, T/C [6]: 55.3%; viability, T/C [7]: 42.5%; viability, T/C [8]: 29.8%; viability, T/C (second compound 0.1 µM, first compound 3.16 µM): 15.6%; viability, T/C (second compound 0.1 µM, first compound 10 µM): 13.2%; viability, T/C [9]: 80.6%; viability, T/C [10]: 49.6%; viability, T/C [11]: 39.5%; viability, T/C [12]: 26.6%; viability, T/C (second compound 0.316 µM, first compound 3.16 µM): 18.5%; viability, T/C (second compound 0.316 µM, first compound 10 µM): 11.5%; viability, T/C [13]: 91%; viability, T/C [14]: 55.7%; viability, T/C [15]: 35.2%; viability, T/C [16]: 21.5%; viability, T/C (second compound 1 µM, first compound 3.16 µM): 16.5%; viability, T/C (second compound 1 µM, first compound 10 µM): 12.9%; viability, T/C [17]: 79.1%; viability, T/C [18]: 49.5%; viability, T/C [19]: 31.8%; viability, T/C [20]: 23.1%; viability, T/C (second compound 3.16 µM, first compound 3.16 µM): 18.9%; viability, T/C (second compound 3.16 µM, first compound 10 µM): 14%; viability, T/C [21]: 73.8%; viability, T/C [22]: 48%; viability, T/C [23]: 35.8%; viability, T/C [24]: 22.1%; viability, T/C (second compound 10 µM, first compound 3.16 µM): 18.4%; viability, T/C (second compound 10 µM, first compound 10 µM): 15.5%
